Experimental data from US10154990B2, “Medicaments for the treatment or prevention of fibrotic diseases” (Boehringer Ingelheim International GmbH, priority 2004, dated 2018).

Key:
[1] = tested on: Bleomycin-induced Pulmonary Fibrosis; assay: Lung morphology following bleomycin-induced pulmonary fibrosis (histology, Masson's Trichrome); type: in vivo, Male Wistar rats; conditions: bleomycin-treated rats (10 U/kg intratracheal), daily oral treatment with 50 mg/kg, days 1-21, lungs removed 21 days after instillation
Experimental: (A) Effect of a Representative Compound on Lung Morphology Following Bleomycin-induced Pulmonary Fibrosis. Bleomycin sulfate (Bleomycin […]) was purchased from a local pharmacy. All experiments were performed in accordance with German guidelines for animal welfare, performed by persons certified to work with animals and approved by the responsible authorities. Male Wistar rats were intratracheally injected with Bleomycin sulfate (10U/kg body weight in 300 μl saline) or saline alone (saline control) using a catheter (0.5 mm internal diameter, 1.0 mm external diameter) through the nasal passage, following exposure to the anaesthetic Isofluorane for 5 minutes. The following day, the rats were orally treated with Example A (compound (m)) or saline suspended in 1 ml 0.1% Natrosol. Control rats were administered 1 ml 0.1% Natrosol (vehicle control). [table] 21 days following bleomycin instillation, the rats were killed with a lethal intraperitoneal injection of NarcorenTM (Pentobarbital Sodium, Rhone Merieux). The lungs were then removed, blotted dry and half was snap frozen in liquid nitrogen and stored at -80° C. The other half was fixed in 4% formalin for subsequent paraffin embedding and histology. […] Collagen deposition was assessed using Masson's Trichrome staining. […]

fibrotic marker genes = assay: Expression of fibrotic marker genes in lung following bleomycin-induced pulmonary fibrosis (real time PCR); type: in vivo, Male Wistar rats; conditions: bleomycin-treated rats, daily 50 mg/kg, days 1-21, real time PCR normalized to 18S
Experimental: (B) Effect of a Representative Compound on Expression of Fibrotic Marker Genes Following Bleomycin-induced Pulmonary Fibrosis.
One part of the frozen lung tissue dedicated to investigation of gene expression was cut into small pieces using a sterile scalpel blade. Approximately 100 mg of tissue was then placed into a 2 ml Eppendorf tube and 1.5 ml of Trizol (Invitrogen) was added. A sterile tungsten carbide bead (Qiagen) was then added to the tube and the tube was placed in a Retsch MM300 Tissue disruptor (Qiagen) at a frequency of 30.0 Hz for 8 minutes. After this time, the bead was removed and the sample centrifuged at 12000 rpm for 10 minutes to remove tissue debris. The RNA was extracted using a modified version of the manufacturer's protocol supplied with Trizol. […] The concentration of each sample was then measured using a spectrophotometer. […]
Real Time PCR was carried out in 25 μl reactions, using 25 ng (5 μl) of cDNA per reaction. A quantitative PCR core kit was purchased (Eurogentec) and a master-mix was made up as follows for 100 reactions: 500 μl 10× reaction buffer, 500 μl MgCl2 (50 mM), 200 μl dNTP mix solution (5 mM), 25 μl Hot Goldstar enzyme, 75 μl 18S PDAR, 22.5 μl forward primer, 22.5 μl reverse primer, 15 μl probe and […] DEPC treated water. […]
In order to quantify the gene expression, a standard curve was constructed for each primer set and was included on each plate. […]

| SMILES | melting point [°C] | lung fibrosis (lung morphology, collagen deposition by Masson's Trichrome staining) [1] | also measured |
| --- | --- | --- | --- |
| COC(=O)c1ccc2c(c1)NC(=O)/C2=C(\Nc1ccc(N(C)C(=O)CN(C)C)c(C#N)c1)c1ccccc1 [(v), 3-Z-[1-(3-cyano-4-(N-dimethylaminomethylcarbonyl-N-methyl-amino)-anilino)-1-phenyl-methylene]-6-methoxycarbonyl-2-indolinone] | 163 to 165 | – | – |
| COC(=O)c1ccc2c(c1)NC(=O)/C2=C(\Nc1ccc(N(C)C(=O)CN(C)C)cc1)c1ccccc1 [Compound (m), 3-Z-[1-(4-(N-dimethylaminomethylcarbonyl-N-methyl-amino)-anilino)-1-phenyl-methylene]-6-methoxycarbonyl-indolinone] | – | consistent, nearly complete reversal of lung fibrosis | expression of fibrotic marker genes (procollagen I, fibronectin) in the lung (fibrotic marker genes; FIGS. 2 and 3, vs bleomycin + vehicle): significant (p≤0.0001) inhibition |
| COC(=O)c1ccc2c(c1)NC(=O)/C2=C(\Nc1ccc(N(C)C(=O)CN2CCN(C)CC2)cc1)c1ccccc1 [Compound (u), 3-Z-[1-(4-(N-((4-methyl-piperazin-1-yl)-methylcarbonyl)-N-methyl-amino)-anilino)-1-phenyl-methylene]-6-methoxycarbonyl-2-indolinone] | – | consistent, nearly complete reversal of lung fibrosis | expression of fibrotic marker genes (procollagen I, TGFb) in the lung (fibrotic marker genes; FIGS. 5 and 6, vs bleomycin + vehicle): significant (p≤0.0001) inhibition |

Further lines, with some results ahead:

| melting point [°C] | SMILES | lung fibrosis (lung morphology, collagen deposition by Masson's Trichrome staining) [1] | also measured |
| --- | --- | --- | --- |
| 160 to 163 | COC(=O)c1ccc2c(c1)NC(=O)/C2=C(\Nc1ccc(N(C)C(=O)CN(C)C)c(OC)c1)c1ccccc1 [(w), 3-Z-[1-(3-methoxy-4-(N-dimethylaminomethylcarbonyl-N-methyl-amino)-anilino)-1-phenyl-methylene]-6-methoxycarbonyl-2-indolinone] | – | – |
| 221 | COC(=O)c1ccc2c(c1)NC(=O)/C2=C(\Nc1ccc(N(C)C(=O)CN)cc1)c1ccccc1 [(x), 3-Z-[1-(4-(N-aminomethylcarbonyl-N-methyl-amino)-anilino)-1-phenyl-methylene]-6-methoxycarbonyl-2-indolinone] | – | – |
| 199 to 202 | COC(=O)c1ccc2c(c1)NC(=O)/C2=C(\Nc1ccc(N(C)C(=O)C(N)(CCO)CCO)cc1)c1ccccc1 [(z), 3-Z-[1-(4-(N-(di-(2-hydroxy-ethyl)-amino-methylcarbonyl)-N-methyl-amino)-anilino)-1-phenyl-methylene]-6-methoxycarbonyl-2-indolinone] | – | – |
